Reference: patent publication US20120196793A1, “BIOMARKERS FOR IAP INHIBITOR COMPOUNDS” (priority 2009, published 2012)

Columns and labels:
TNFα [1] = experiment: Secreted TNFα ELISA in a panel of cancer cell lines before and 24 hours after compound addition; format: cell-based, Human; conditions: sensitive vs insensitive cancer cell lines (3-day viability assays, up to 10 uM)
Protocol: To test whether the engagement of the TNFα signaling pathway is requisite for single agent activity in vitro, a panel of cancer cell lines is evaluated for sensitivity to Compound A while in parallel, secreted TNFα expression levels are assessed by ELISA before and 24 hours after compound addition. […] Increased basal TNFα levels also positively correlate with sensitivity to Compound A (FIG. 8).
(§1) On day one, cancer cells are plated into two 96-well, clear, flat bottom plates. All wells in row A contain 200 uL of media. All wells in rows B-G contain 5000 cells per well in 180 ul of RPMI media with 10% FBS. Plates are then incubated overnight for 18 hours at 37 C, 5% CO2. […] TNFα levels in the media are measured using the R&D Quantikine Human TNFα High Sensitivity ELISA assay, catalog number HSTA00D. […] The colorimetric readout is measured on a spectrometer at 490nM within 30 minutes of adding the stop solution. Raw data is normalized to account for background noise, duplicate values are averaged and concentrations are calculated from a standard curve (FIG. 8). […] CTG measures the amount of ATP released from viable cells that can be measured by a luminescent plate reader. Cells with CTG are incubated for ten minutes at room temperature and read on a luminescent plate reader. Raw data is normalized to account for background noise, duplicate values are averaged and percent control growth is calculated.

TNFα [2] = experiment: TNFα ELISA in SK-OV-3 cells with shRNA knockdown of NFkB pathway nodes; format: cell-based, Human
Protocol: To elucidate this mechanism, nodes of the canonical and non-canonical NFkB pathways and are knocked down and induction of TNFα expression, a marker of NFkB activation, after treatment with the Smac mimetic compound Compound A, is assessed. […] Therefore, tumors with active or functional canonical NFkB signaling, as evidenced by TNFα expression or other markers of active NFkB signaling, are more likely to respond to Compound A.
as §1, with “one, SKOV” for “one,”, “10% FBS and 1 ug/mL of puromycin.” for “10% FBS.”, “Human TNFalpha” for “Human TNFα”, “at 490 nM” for “at 490nM”, “(FIG. 9).” for “(FIG. 8).”, “reader. […]” for “reader. Raw data is normalized to account for background noise, duplicate values are averaged and percent control growth is calculated.”

[3] = test system: MDA-MB-231 breast cancer cell line; experiment: In vitro induction of TNFα, caspase activation and cell death in tumor cell lines; format: cell-based; conditions: in vitro assays, variety of tumor cell lines including MDA-MB-231
TNFα [4] = experiment: TNFα ELISA of tumor lysates from orthotopic MDA-MB-231 xenografts after a single oral dose; format: in vivo, mice; conditions: 39 days after tumor cell implantation, mean tumor volume approximately 141 mm3
Protocol: To assess whether the induction of TNFα observed in the MDA-MB-231 breast tumor cell line translated to an in vivo setting, an experiment is performed in mice harboring orthotopically implanted MBA-MD-231 tumors.
A single oral dose of Compound A is administered 39 days following tumor cell implantation when mean tumor volumes reached approximately 141 mm3. Tumors are harvested from each animal, lysed, and analyzed by ELISA to determine TNFα concentrations.

[5] = test system: patient-derived tumor models representing both triple negative breast cancer and Non Small Cell Lung Carcinoma (NSCLC); experiment: Single agent tumor growth inhibition (% T/C) in patient-derived xenograft models; format: in vivo, nude mice; conditions: 18 patient-derived tumor models
From the text: Patient-derived xenograft models in which human tumors are surgically resected then directly implanted and subsequently passaged in nude mice are potentially more clinically relevant than cell line models since there is no selective pressure for two dimensional growth on a plastic stratum.
Compound A has been tested for single agent activity in 18 patient-derived tumor models representing both triple negative breast cancer and Non Small Cell Lung Carcinoma (NSCLC) models. Tumor growth inhibition by Compound A is reported as % T/C (percent growth of tumors in mice treated with Compound A relative to the growth of tumors in Control vehicle treated mice). Complete regression of a tumor would be reported as −100% T/C, tumor stasis (no growth) would be reported as 0% T/C, and no effect would be reported as 100% T/C. […] Stasis (T/C≦40%) has been observed in 25% of primary models assessed.

## CN[C@@H](C)C(=O)N[C@H](C(=O)N1CCC[C@H]1c1nc(C(=O)c2ccc(F)cc2)cs1)C1CCCCC1 [Compound A, (S)—N—((S)-1-Cyclohexyl-2-{(S)-2-[4-(4-fluoro-benzoyl)-thiazol-2-yl]-pyrrolidin-1-yl}-2-oxo-ethyl)-2-methylamino-propionamide]
TNFα [1]
  induction of secreted TNFα: induced TNF-alpha in sensitive but not insensitive cancer cell lines
TNFα [2]; SK-OV-3, shRNA-mediated knockdown of RelB (non-canonical NFkB pathway)
  Compound A-mediated induction of TNFα after knockdown of RelB: does not impact
TNFα [2]; SK-OV-3 ovarian carcinoma cell line, shRNA-mediated knockdown of RelA (canonical NFkB pathway)
  Compound A-mediated TNF induction after knockdown of RelA: ablated TNF induction
[3]
  induction of TNFα, activation of caspases and subsequent cell death: induces the induction of TNFα, activation of caspases and subsequent cell death
TNFα [4]
  increase in TNFα in MDA-MB-231 tumor lysates: ~10 fold
[5]
  range of responses (% T/C): from tumor regression to no effect
  share of primary models in which stasis (T/C≦40%) was observed: 25%
